The values below come from patent US8258311B2, “Human protein tyrosine phosphatase inhibitors and methods of use” (Aerpio Therapeutics Inc., priority 2006, dated 2012).

The test system of experiment [1] is hindlimb ischemia. Nature of the experiment: Rat hindlimb model of collateral development: blood flow during treadmill exercise (microspheres). Format: in vivo. From the text:
The Rat hindlimb model is used to evaluate angiogenic properties of novel HPTPb inhibitors. Specifically to determine if there is enhanced blood flow to the collateral dependent region of the leg post ischemia when the animal is in an exercise challenged state. […] An initial surgery is done to create hindlimb ischemia and implant osmotic pumps essentially as previously described with minor alterations. […] Following induction, animals are transferred to a surgical mat and anesthesia is continued via a non-rebreathing circuit. A warming lamp is positioned above the rat and a rectal probe is placed to monitor the animal's body temperature. The groin areas bilaterally are clipped and prepared with alternating Betadine and alcohol scrubs (3×) and a sterile drape is placed over the rat. The left femoral artery is exposed through a skin incision and subsequently ligated in two positions 1 cm apart; distal to the inguinal ligament and proximal to the femoral circumflex artery. The skin is closed using either skin staples or Vetbond. The same procedure is repeated on the right side. […] Prior to implantation, osmotic pumps are filled with VEGF165 solution at a dose of 15 μg/kg/day, and primed overnight inside sterile saline beakers in a water bath (37° C.). Stretched PESO catheters coated with PPG (Poly propylene glycol Aldrich # 20-235-5) are attached using sterile technique and in accordance with manufacture's instructions the afternoon prior to surgery. For pump placement, an incision is made to expose the right jugular vein, an area is tunneled SubQ from the right side of the neck to the back and the pump is placed in the resulting SubQ pocket. The vessel is ligated with 4-0 silk, a cut is made in the vessel just distal to the tie and the catheter from the osmotic pump is threaded down stream (approx 2 cm) and secured with a second tie. The skin is closed in the same manner as above. Two weeks after the ligation surgery the rat underwent a second acute surgery to place indwelling catheters for microsphere measurements. Rats are anesthetized as described above. The animal is clipped, prepped, and EMLA cream is applied to each entry site. First an incision is made longitudinally at the ventral base of the tail using a 10 blade. A tapered PE 50 catheter is inserted approximately 3 cm into the ventral tail artery and anchored into place. The end of the catheter is then wrapped around the tail and tunneled SubQ over the back, exiting between the shoulder blades. Following tail artery cannulation, a midline neck incision is made to expose the left carotid artery for occlusive cannulation. A tapered PE 50 catheter is placed 3 cm into the carotid and the distal end is tunneled SubQ, exiting between the shoulder blades. The neck is closed with either skin stables or Vetbond and EMLA cream is applied. The exit site is closed around the catheters with a purse string suture stitch. The ends of the catheters are cauterized shut and the rat is allowed to recover from anesthesia for at least 4 hours. For blood flow measurements, rats are placed onto the treadmill and the catheters are connected to extension tubing via 22 gage male-male connectors. For microsphere withdrawals and blood pressure measurements, the tail artery catheter is connected to a syringe (coated with tween and heparin-), which is “T” Ed to a withdrawal pump and a pressure transducer. The carotid catheter is used for injecting the microspheres. The rat began running at speed 20 m/min and an elevation of 7°. […] The pump is set to stop at 90 seconds. The […] stopped, the extension lines are replaced and the animal's lines are flushed, and the animal allowed to rest. The syringe and lines are removed from the pump and the reference blood sample is place in a labeled tube for processing. […] At the completion of the second run, the animal is euthanized with 0.3 ml of Buthaneasia. Following euthanasia, tissues are removed, trimmed, weighed, recorded, and placed in marked tubes for processing. […]

Experiment [2] deals with T1, PTP1B (Homo sapiens, UniProt P18031).
T1 sequence (P18031 1-435): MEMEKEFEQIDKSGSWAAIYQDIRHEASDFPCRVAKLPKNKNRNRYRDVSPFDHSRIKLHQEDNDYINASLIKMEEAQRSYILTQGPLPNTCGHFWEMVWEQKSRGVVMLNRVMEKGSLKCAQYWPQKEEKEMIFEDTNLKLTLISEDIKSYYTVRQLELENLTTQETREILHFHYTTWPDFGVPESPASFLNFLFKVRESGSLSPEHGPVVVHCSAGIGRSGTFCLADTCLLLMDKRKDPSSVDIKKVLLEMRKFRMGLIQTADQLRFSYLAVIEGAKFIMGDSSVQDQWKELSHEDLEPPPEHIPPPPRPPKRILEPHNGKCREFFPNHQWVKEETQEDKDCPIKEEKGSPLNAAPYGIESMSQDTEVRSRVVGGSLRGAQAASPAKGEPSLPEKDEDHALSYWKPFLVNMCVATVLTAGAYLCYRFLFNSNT
The experiment can be described thus: PTP1B inhibition (IC50). Format: biochemical.

Experiment [3] addresses HPTPβ (Homo sapiens, UniProt P23467). Nature of the experiment: HPTPβ inhibition (IC50). It counts as biochemical.

Sequence of HPTPβ (P23467 23-1997): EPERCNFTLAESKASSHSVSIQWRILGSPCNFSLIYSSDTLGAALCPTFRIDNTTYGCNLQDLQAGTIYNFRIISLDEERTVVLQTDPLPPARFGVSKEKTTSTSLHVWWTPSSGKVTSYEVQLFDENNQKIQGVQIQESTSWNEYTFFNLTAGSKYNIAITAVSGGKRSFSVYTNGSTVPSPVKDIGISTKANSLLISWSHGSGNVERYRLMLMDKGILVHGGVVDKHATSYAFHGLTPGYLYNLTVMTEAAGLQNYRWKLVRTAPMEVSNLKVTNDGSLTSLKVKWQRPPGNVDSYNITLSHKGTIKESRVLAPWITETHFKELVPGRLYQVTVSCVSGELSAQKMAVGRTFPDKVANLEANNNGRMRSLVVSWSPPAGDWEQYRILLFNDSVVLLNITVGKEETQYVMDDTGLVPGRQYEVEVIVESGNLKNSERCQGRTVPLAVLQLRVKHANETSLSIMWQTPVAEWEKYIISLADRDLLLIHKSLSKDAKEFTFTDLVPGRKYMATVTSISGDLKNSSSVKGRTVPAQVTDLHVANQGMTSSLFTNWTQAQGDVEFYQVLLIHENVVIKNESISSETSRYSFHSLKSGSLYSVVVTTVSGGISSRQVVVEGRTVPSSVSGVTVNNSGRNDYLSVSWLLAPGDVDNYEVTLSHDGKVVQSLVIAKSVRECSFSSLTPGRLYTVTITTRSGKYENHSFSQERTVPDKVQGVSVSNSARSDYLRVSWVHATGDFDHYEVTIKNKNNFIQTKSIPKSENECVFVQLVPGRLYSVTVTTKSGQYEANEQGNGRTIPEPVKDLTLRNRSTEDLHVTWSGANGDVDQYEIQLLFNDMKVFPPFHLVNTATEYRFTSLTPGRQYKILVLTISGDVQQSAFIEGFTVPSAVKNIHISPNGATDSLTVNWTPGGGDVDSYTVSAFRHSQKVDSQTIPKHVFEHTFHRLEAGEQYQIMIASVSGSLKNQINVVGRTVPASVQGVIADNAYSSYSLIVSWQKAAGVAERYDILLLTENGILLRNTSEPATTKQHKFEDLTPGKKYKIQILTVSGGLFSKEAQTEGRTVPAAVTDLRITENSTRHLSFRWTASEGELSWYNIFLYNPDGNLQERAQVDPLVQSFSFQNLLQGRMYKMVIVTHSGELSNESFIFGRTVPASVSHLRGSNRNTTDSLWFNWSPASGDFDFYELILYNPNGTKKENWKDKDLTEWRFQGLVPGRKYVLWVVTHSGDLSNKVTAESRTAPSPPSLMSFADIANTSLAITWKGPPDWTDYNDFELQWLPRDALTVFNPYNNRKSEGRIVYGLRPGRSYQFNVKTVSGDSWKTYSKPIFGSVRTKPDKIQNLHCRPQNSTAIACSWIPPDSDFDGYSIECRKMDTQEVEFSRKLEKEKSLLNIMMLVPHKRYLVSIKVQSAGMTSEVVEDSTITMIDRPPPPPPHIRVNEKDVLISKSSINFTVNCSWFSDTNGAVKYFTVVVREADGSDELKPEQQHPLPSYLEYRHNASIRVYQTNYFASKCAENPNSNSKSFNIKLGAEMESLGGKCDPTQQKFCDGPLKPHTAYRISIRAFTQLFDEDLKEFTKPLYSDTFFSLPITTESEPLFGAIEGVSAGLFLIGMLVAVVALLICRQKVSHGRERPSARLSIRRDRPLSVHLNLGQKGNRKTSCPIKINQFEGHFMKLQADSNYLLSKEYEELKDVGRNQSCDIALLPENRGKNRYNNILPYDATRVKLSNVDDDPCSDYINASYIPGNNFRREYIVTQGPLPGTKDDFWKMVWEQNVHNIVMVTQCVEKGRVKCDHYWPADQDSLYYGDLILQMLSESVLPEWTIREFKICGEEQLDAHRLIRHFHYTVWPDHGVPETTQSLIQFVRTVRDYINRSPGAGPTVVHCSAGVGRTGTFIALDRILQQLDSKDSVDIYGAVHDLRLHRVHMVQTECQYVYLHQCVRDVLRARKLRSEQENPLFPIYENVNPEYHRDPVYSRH

On to VEGF, for which, in experiment [1] (VEGF 15 μg/kg/d, mean ± SE), the “Blood Flow During exercise Calf (GPS)” value turned out to be 76 ± 1.1 ml/min/100 g. In addition, the “GPS blood flow over the Vehicle control groups” value in experiment [1] (VEGF treatment groups) was “significant improvement”.
The term IC50 denotes the point on the concentration scale where inhibition reaches its midpoint. The low end stands for greater potency in that assay, the high end for weaker potency in that assay. Take `Cc1sc([C@H](Cc2ccc(NS(=O)(=O)O)cc2)NC(=O)C(C)(C)C)nc1-c1ccccc1` [(S)-4-(2-(5-Methyl-4-phenylthiazol-2-yl)-2-pivalamidoethyl)phenylsulfamic acid]: the IC50 is 50500 nM in experiment [2] and 98 nM in experiment [3].
The matching figures for `CC(C)(C)OC(=O)N[C@@H](Cc1ccc(NS(=O)(=O)O)cc1)c1nc(CO)cs1` [(S)-4-(2-(tert-Butoxycarbonylamino)-2-(4-(hydroxymethyl)thiazol-2-yl)ethyl)phenylsulfamic acid]: 31600 nM and 644 nM.
The matching figures for `COC(=O)N[C@@H](Cc1ccccc1)C(=O)N[C@@H](Cc1ccc(NS(=O)(=O)O)cc1)c1nc(CC(F)(F)F)cs1` [4-{(S)-2-[(S)-2-(Methoxycarbonylamino)-3-phenylpropanamido]-2-[4-(2,2,2-trifluoroethyl)thiazol-2-yl]ethyl}phenylsulfamic acid]: 1630 nM and 0.3 nM.
The matching figures for “(S)-4-(2-(tert-Butoxycarbonylamino)-2-(2-pivalamidothiazol-4-yl)ethyl)phenylsulfamic acid”: 9120 nM and 555 nM.
Regarding `CC(C)(C)C(=O)N[C@@H](Cc1ccc(NS(=O)(=O)O)cc1)c1nc(Cc2ccccc2)cs1` [(S)-4-(2-(4-Benzylthiazol-2-yl)-2-pivalamidoethyl)phenylsulfamic acid], the half-inhibitory concentration (IC50) in experiment [2] is 38200 nM; in experiment [3] it was 113 nM.
The corresponding values for `CC(C)(C)OC(=O)N[C@@H](Cc1ccc(NS(=O)(=O)O)cc1)c1ncc(-c2ccccc2)s1` [(S)-4-(2-(tert-Butoxycarbonylamino)-2-(5-phenylthiazol-2-yl)ethyl)-phenyl sulfamic acid] are 11400 nM and 308 nM.
The corresponding values for `CCOC(=O)N[C@@H](Cc1ccccc1)C(=O)N[C@@H](Cc1ccc(NS(=O)(=O)O)cc1)c1nc(CC)cs1` [4-{(S)-2-[(S)-2-(Ethoxycarbonylamino)-3-phenylpropanamido]-2-(4-ethylthiazol-2-yl)ethyl}phenylsulfamic acid] are 680 nM and 0.14 nM.
In the case of `Cc1nc([C@H](Cc2ccc(NS(=O)(=O)O)cc2)NC(=O)OC(C)(C)C)cs1`, the IC50 in experiment [2] was 18900 nM; in experiment [3], 33 nM.
The corresponding values for `COC(=O)N[C@@H](Cc1ccccc1)C(=O)N[C@@H](Cc1ccc(NS(=O)(=O)O)cc1)c1csc(CS(=O)(=O)C(C)(C)C)n1` [4-{(S)-2-[2-(tert-Butylsulfonylmethyl)thiazol-4-yl]-2-[(S)-2-(methoxycarbonylamino)-3-phenylpropanamido]ethyl}phenylsulfamic acid] are 1210 nM and 2 nM.
The corresponding values for `CCc1csc([C@H](Cc2ccc(NS(=O)(=O)O)cc2)NC(=O)[C@H](Cc2ccccc2)NC(C)=O)n1` [4-[(S)-2-((S)-2-Acetamido-3-phenylpropanamido)-2-(4-ethylthiazol-2-yl)ethyl]phenylsulfamic acid] are 1970 nM and 1 nM.
The corresponding values for `CC(=O)N[C@@H](Cc1ccccc1)C(=O)N[C@@H](Cc1ccc(NS(=O)(=O)O)cc1)c1nc(-c2ccsc2)cs1` [4-{(S)-2-((S)-2-Acetamido-3-phenylpropanamido)-2-[4-(thiophen-3-yl)thiazol-2-yl]ethyl}phenylsulfamic acid] are 1160 nM and 0.24 nM.
As to `CC(C)(C)C(=O)N[C@@H](Cc1ccc(NS(=O)(=O)O)cc1)c1nc(CO)cs1` [(S)-4-{2-[4-(hydroxymethyl)thiazol-2-yl]-2-pivalamidoethyl}phenyl-sulfamic acid], the IC50 in experiment [2] worked out at 50000 nM; in experiment [3], 266 nM.
